This experiment has as its target T1, Choline O-acetyltransferase (Homo sapiens, UniProt P28329).
T1 sequence (P28329 whole entry): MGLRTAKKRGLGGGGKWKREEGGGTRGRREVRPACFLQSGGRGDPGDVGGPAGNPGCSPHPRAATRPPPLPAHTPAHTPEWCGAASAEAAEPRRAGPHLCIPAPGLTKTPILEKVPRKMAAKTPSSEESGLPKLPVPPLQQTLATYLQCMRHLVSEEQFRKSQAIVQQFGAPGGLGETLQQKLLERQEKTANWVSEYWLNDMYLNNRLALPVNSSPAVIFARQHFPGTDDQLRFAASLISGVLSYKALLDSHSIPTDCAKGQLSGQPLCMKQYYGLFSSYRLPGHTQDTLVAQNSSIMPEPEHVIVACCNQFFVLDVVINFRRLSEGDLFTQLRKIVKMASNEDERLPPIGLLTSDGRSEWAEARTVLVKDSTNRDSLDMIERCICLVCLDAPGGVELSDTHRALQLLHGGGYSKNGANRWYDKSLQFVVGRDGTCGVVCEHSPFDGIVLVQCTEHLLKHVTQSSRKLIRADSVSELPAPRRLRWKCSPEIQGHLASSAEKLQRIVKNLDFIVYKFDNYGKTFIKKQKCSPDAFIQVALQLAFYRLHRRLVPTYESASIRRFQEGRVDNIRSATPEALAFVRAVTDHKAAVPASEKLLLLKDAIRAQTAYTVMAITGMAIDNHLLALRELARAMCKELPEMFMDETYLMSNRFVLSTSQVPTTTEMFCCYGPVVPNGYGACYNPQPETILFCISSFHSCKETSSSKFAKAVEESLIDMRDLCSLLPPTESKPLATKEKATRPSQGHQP
Briefly: Inhibition of Choline Acetyltransferase. Conditions: read-out: I50.
Take `C[n+]1ccc(/C=C/c2cc3ccccc3c3ccccc23)cc1`: the IC50 was > 100 µM.
Under `C[n+]1ccc(/C=C/c2cccc3ccccc23)cc1` stands 0.4 µM; under `Cc1c[n+](C)ccc1/C=C/c1ccccc1`, 5 µM; under `C[n+]1ccc(/C=C/c2ccccc2)cc1`, 13.5 µM.
On to `COc1ccc(/C=C/c2cc[n+](C)cc2)c2ccccc12`, for which the IC50 is > 100 µM.
With `C[n+]1ccc(/C=C/c2cccc(Cl)c2)cc1` the figure was 2.3 µM.
Under `CCc1c[n+](C)ccc1/C=C/c1ccccc1` stands 19 µM; under `C[n+]1ccc(/C=C/c2ccccc2)c2ccccc21`, 3.5 µM; under `C/C(=C\c1ccccc1)c1cc[n+](C)cc1`, > 100 µM.
With `C[n+]1ccc(/C=C/c2ccccc2Cl)cc1` the figure was 28 µM; with `C[n+]1ccc(/N=C/c2cccc3ccccc23)cc1`, > 100 µM.
As to `Cc1c[n+](C)ccc1/C=C/c1cccc2ccccc12`, the IC50 was found to be 0.4 µM.
With `C[n+]1ccc(/C=N/c2cccc3ccccc23)cc1` the figure was 1.5 µM.

For the origin of these results see ChEMBL document CHEMBL1127467, “Molecular modeling studies of some choline acetyltransferase inhibitors” (J Med Chem, 1994).
